We go through one compound from publication PMC6017357, “In Vitro Inhibitory Effects of Synthetic Cannabinoid EAM-2201 on Cytochrome P450 and UDP-Glucuronosyltransferase Enzyme Activities in Human Liver Microsomes” (Molecules : A Journal of Synthetic Chemistry and Natural …, 2018).

One test deals with T1, UGT1A1 (Homo sapiens, UniProt P22309).
T1 construct: ultrapooled human liver microsomes (0.2 mg/mL), 5 mM UDPGA; from tissue; host or cells: ultrapooled human liver microsomes
T1 sequence (P22309 26-533): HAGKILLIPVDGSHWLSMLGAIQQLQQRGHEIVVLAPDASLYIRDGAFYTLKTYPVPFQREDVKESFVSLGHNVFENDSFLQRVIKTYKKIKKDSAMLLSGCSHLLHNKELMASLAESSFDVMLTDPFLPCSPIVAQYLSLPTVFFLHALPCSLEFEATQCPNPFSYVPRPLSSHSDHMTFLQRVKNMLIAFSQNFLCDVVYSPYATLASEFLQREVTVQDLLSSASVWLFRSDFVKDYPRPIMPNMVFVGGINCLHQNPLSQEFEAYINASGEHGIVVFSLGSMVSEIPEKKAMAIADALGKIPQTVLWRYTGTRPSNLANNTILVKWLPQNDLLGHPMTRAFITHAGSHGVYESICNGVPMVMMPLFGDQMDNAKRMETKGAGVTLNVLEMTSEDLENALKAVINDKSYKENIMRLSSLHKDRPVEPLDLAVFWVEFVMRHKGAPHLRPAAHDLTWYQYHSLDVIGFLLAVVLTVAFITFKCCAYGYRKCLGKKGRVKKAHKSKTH
The experiment in a line: UGT1A1-catalyzed SN-38 glucuronidation in human liver microsomes. The class given is in vitro ADME. The conditions noted are these: at 50 µM. The protocol:
The inhibitory effects of EAM-2201 on UGT1A1, UGT1A3, UGT1A4, UGT1A6, UGT1A9 and UGT2B7 were evaluated using LC-MS/MS and the cocktail of UGT substrates as previously described. Each incubation mixture was prepared in a final volume of 100 µL as follows: ultrapooled human liver microsomes (0.2 mg/mL), 5 mM UDPGA, 10 mM magnesium chloride, alamethicin (25 µg/mL), 50 mM Tris buffer (pH 7.4), various concentrations of EAM-2201 in DMSO (final concentrations of 1–50 µM, 0.5% DMSO) and the UGT enzyme-specific substrates of two cocktail sets (set A: 0.5 µM SN-38, 2 µM chenodeoxycholic acid and 0.5 µM trifluoperazine; set B: 1 µM N-acetylserotonin, 0.2 µM mycophenolic acid and 1 µM naloxone, acetonitrile content, 0.5%). […] Supernatant from sets A and B (50 µL of each) was mixed and aliquots (5 µL) were analyzed by LC-MS/MS. […]
(§1) The metabolites formed from the six UGT cocktail substrates were simultaneously measured using LC-MS/MS [41]. […] Each metabolite was quantified via SRM in the negative ion mode: chenodeoxycholic acid 24-acyl-β-glucuronide, 567.2 > 391.0; mycophenolic acid glucuronide, 495.2 > 318.9; and propofol glucuronide (IS), 353.3 > 177.1; and in the positive ion mode: SN-38 glucuronide, 569.0 > 393.0; trifluoperazine glucuronide, 584.2 > 408.1; N-acetylserotonin-β-D-glucuronide, 395.2 > 219.0; naloxone 3-β-D-glucuronide, 504.0 > 310.0; and meloxicam (IS), 352.0 > 115.1. […]
Background: Liver microsomes are a subcellular fraction often used to study metabolism.

A further test deals with T2, UGT1A3 (Homo sapiens, UniProt P35503).
T2 sequence (P35503 29-534): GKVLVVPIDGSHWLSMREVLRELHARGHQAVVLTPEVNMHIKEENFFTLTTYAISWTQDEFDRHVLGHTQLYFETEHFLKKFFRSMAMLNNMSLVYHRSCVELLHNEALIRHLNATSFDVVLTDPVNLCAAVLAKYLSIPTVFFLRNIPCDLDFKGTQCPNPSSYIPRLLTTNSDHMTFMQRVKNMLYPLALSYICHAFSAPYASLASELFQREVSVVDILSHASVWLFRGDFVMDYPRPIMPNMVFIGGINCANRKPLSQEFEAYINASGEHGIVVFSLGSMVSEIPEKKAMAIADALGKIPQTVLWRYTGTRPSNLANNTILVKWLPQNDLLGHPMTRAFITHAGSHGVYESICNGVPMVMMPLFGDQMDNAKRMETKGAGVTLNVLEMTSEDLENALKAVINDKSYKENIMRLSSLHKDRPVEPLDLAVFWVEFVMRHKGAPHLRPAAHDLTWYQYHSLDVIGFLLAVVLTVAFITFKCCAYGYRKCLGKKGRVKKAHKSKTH
The test can be described thus: UGT1A3-catalyzed chenodeoxycholic acid 24-acyl-glucuronidation in human liver microsomes. More on the design: from tissue; host or cells: ultrapooled human liver microsomes. Format: in vitro ADME. The protocol: The inhibitory effects of EAM-2201 on UGT1A1, UGT1A3, UGT1A4, UGT1A6, UGT1A9 and UGT2B7 were evaluated using LC-MS/MS and the cocktail of UGT substrates as previously described. […] Supernatant from sets A and B (50 µL of each) was mixed and aliquots (5 µL) were analyzed by LC-MS/MS. […]
Reactions were initiated by adding UDPGA at 37 °C and stopped after 60 min by adding 100 µL ice-cold methanol containing propofol glucuronide (internal standard). […] Aliquots (5 µL) of the diluted supernatants were analyzed using LC-MS/MS.
as §1

Broadly, the IC50 is the concentration that inhibits the measured activity by half. Read a low IC50 as greater potency in that assay. One may read the Ki as the dissociation constant of the complex between target and ligand, obtained from inhibition or displacement. Higher therefore signals weaker binding. As for `CCc1ccc(C(=O)c2cn(CCCCCF)c3ccccc23)c2ccccc12` [EAM-2201, (4-ethyl-1-naphthalenyl)[1-(5-fluoropentyl)-1H-indol-3-yl]-methanone], on UGT1A1, the “inhibition of UGT1A1-catalyzed SN-38 glucuronidation” value is reported as “negligibly inhibited”. At UGT1A3, this compound showed an IC50 of 11.7 µM and a Ki of 2.4 µM.
